The text below walks through data of patent US20260234141A1, “COMPOUNDS AND COMPOSITIONS USEFUL AS DEGRADERS OF MK2 KINASE” (Celgene Corporation, priority 2023, published 2026).

The structures appear in SMILES notation.

The target of one experiment is T1, MK2 (Homo sapiens, UniProt P49137).
T1 construct: expressed in transfected cells
Description: MK2 degradation assay in MK2 overexpressed HiBiT-tagged cell line. In kind it is cell-based. To be noted: cells stably expressing HiBiT-tagged MK2 (overexpressed), overnight incubation, read-out: HiBiT MK2 OE EC50. As to the method:
A compound was dispensed into a white 384-well tissue-culture treated plate using an acoustic liquid handler. Dilutions were based on a 25 μL assay volume in duplicate 10 point 3-fold serial dilutions starting with a 10 μM dose. Negative control wells containing only 0.2% DMSO were also included to calculate 100% signal. All wells were backfilled to a final DMSO concentration of 0.2% to ensure DMSO uniformity across wells. Cells stably expressing HiBiT-tagged protein of interest were then washed, trypsinized, and counted.
These cells were then resuspended in fresh medium to give the proper concentration. This was done so that when cells were plated at a 25 μL seeding volume the assay would be conducted within the linear range from optimization of cell-based HiBiT assay. Following the above procedure, 25 μL of cells expressing HiBiT-tagged protein of interest were dispensed per well. Cells were then seeded into the 384-well plate that was pre-spotted with compounds. The resulting cells were incubated overnight at 37° C./5% CO2.
The 384-well plates were then removed from the incubator and left at room temperature for 30 min. The Nano-Glo HiBiT Lytic Detection Reagent was prepared according to manufacturer's instructions. 25 μL of Nano-Glo HiBiT Lytic Detection Reagent were added per well of a 384-well plate. The resulting plates were incubates for 30 min at room temperature. Luminescence signal was then read using a plate reader.
All luminescence values were normalized to the DMSO control wells. The average value of the DMSO control wells was set to equal 100% of the relative HiBiT-tagged target protein levels.
The luminescence values were plotted using a graphing software. Compound concentration was plotted on the x-axis and the corresponding relative protein of interest levels on the y-axis. Graphing software was used to determine the EC50 value (the half-maximum effective concentration) of a compound for the degradation of the HiBiT-tagged substrate. The software used a four-parameter logistic model (sigmoidal dose-response model) (FIT=(A+{(B−A)/1+[(C/x)^D]})) where C was the inflection point (EC50), D was the […], and A and B were the low and high limits of the fit, respectively) to calculate the EC50. The Ymin was calculated by determining the lowest percentage of target protein remaining following compound treatment.

Experiment [1] deals with T2, p38a activated, mitogen-activated protein kinase-activated protein kinase 2 (MAPKAP-K2 or MK2) enzyme (Homo sapiens, UniProt P49137).
T2 construct: purchased Invitrogen PV3317
T2 sequence (P49137 whole entry): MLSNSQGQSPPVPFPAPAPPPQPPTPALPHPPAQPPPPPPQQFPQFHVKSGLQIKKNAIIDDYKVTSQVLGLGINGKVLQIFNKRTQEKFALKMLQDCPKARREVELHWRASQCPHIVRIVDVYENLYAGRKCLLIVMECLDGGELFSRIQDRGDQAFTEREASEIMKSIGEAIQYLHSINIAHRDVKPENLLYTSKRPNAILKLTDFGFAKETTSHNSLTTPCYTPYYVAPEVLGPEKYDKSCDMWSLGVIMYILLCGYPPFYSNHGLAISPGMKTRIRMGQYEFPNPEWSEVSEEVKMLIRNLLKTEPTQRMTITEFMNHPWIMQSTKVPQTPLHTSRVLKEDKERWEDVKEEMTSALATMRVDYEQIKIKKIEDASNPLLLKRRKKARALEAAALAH
As to the kind of experiment: MK2 OMNIA biochemical assay (AssayQuant continuous-read kinase assay). The following applies: [MK-2]=0.05 nM, [ATP]=100 μM, [AQT0425]=10 μM. As to the method:
The protocol below describes a continuous-read kinase assay optimized to measure potency of compounds against p38a activated, mitogen-activated protein kinase-activated protein kinase 2 (MAPKAP-K2 or MK2) enzyme.
A 1.25× stock solution of MK2 (PV3317, from Invitrogen) and a 5× stock solution of ATP and Sox conjugated peptide substrate, AQT0425 (CSKS-AQT0425B, from AssayQuant Technologies), were prepared in 1× kinase reaction buffer consisting of 50 mM HEPES, pH 7.5, 0.01% Brij-35, 0.55 mM EGTA, 10 mM MgCl2 and 1 mM DTT.
10 μL of the ATP and substrate solution mix was added to a Corning (3574) 384-well, white, non-binding surface microtiter plate containing […] of serially diluted test compounds prepared in DMSO. The reactions were started with the addition of 40 μL of the enzyme solution and monitored every 71 seconds for 240 min at λex 360/λem 485 in a Synergy H4 plate reader from BioTek at room temperature.
The initial linear portions of the net progress curves were fit according to a linear equation to yield the slope and percentage of inhibition (% inhibition) at each compound concentration. The net progress curves obtained during the entirety of reactions were also fit according to an ascending single-exponential equation (Eq. 1) to yield Vobs values at each compound concentration. Plots of % Inhibition versus degrader concentrations were fit according to a dose-response equation (Eq. 2) to generate IC50 and Hill slope values while plots of Vobs versus degrader concentration were fit according to Equation 3 (Eq. 3) to generate apparent Kinact values using the GraphPad PRISM software.
where F is the fluorescence intensity from the plate reader, V0 is a constant reflecting the relationship between the instrument readout and product concentration, t is time, e is Euler's number, and Vobs is the observed inactivation rate constant.
where % Inhibition is percentage of inhibition, IC50 is half maximal inhibitory concentration, [I] is the degraders concentration, and n is the Hill slope.
where kobs is the observed inactivation rate constant, Kinact is the apparent inactivation rate constant, KI is the apparent inhibition constant, and [I] is the degrader concentration.

T1 sequence (P49137 whole entry): as above

On to `Cn1nc(C2CCC(=O)NC2=O)c2ccc(N3CCN(C[C@H]4CC[C@H](NC(=O)c5ccc(-c6cc(-c7cc8c([nH]7)CCNC8=O)ccn6)c(F)c5)CC4)CC3)cc21` (stereo partly drawn) [Example 1.5, N-[trans-4-[[4-[3-(2,6-dioxo-3-piperidyl)-1-methyl-indazol-6-yl]piperazin-1-yl]methyl]cyclohexyl]-3-fluoro-4-[4-(4-oxo-1,5,6,7-tetrahydropyrrolo[3,2-c]pyridin-2-yl)-2-pyridyl]benzamide], for which the DC50 on MK2 was under 0.01 µM. In addition, in experiment [1], the IC50 (as a rule, the concentration that inhibits the measured activity by half) is under 0.15 µM.

`O=C1CCC(c2ccc(N3CCN(C[C@H]4CC[C@H](NC(=O)c5ccc(-c6cc(-c7cc8c([nH]7)CCNC8=O)ccn6)c(F)c5)CC4)CC3)cc2)C(=O)N1` (stereo partly drawn) [Example 1.6, N-(trans-4-((4-(4-(2,6-Dioxopiperidin-3-yl)phenyl)piperazin-1-yl)methyl)cyclohexyl)-3-fluoro-4-(4-(4-oxo-4,5,6,7-tetrahydro-1H-pyrrolo[3,2-c]pyridin-2-yl)pyridin-2-yl)benzamide]: the DC50 at MK2 was in the range of 0.01 to 0.1 µM. Moreover, the IC50 in experiment [1] lay in the range of 0.151 to 0.5 µM.

On to `O=C1CCC(c2cccc(N3CCN(C[C@H]4CC[C@H](NC(=O)c5ccc(-c6cc(-c7cc8c([nH]7)CCNC8=O)ccn6)c(F)c5)CC4)CC3)c2)C(=O)N1` (stereo partly drawn) [Example 1.7, N-(trans-4-((4-(3-(2,6-Dioxopiperidin-3-yl)phenyl)piperazin-1-yl)methyl)cyclohexyl)-3-fluoro-4-(4-(4-oxo-4,5,6,7-tetrahydro-1H-pyrrolo[3,2-c]pyridin-2-yl)pyridin-2-yl)benzamide], for which the DC50 on MK2 was 0.01 to 0.1 µM. Moreover, the IC50 in experiment [1] lay within 0.151 to 0.5 µM.

As to `Cn1nc(C2CCC(=O)NC2=O)c2ccc(N3CCN(CC[C@H]4CC[C@H](NC(=O)c5ccc(-c6cc(-c7cc8c([nH]7)CCNC8=O)ccn6)c(F)c5)CC4)CC3)cc21` (stereo partly drawn) [Example 1.8, N-(trans-4-(2-(4-(3-(2,6-Dioxopiperidin-3-yl)-1-methyl-1H-indazol-6-yl)piperazin-1-yl)ethyl)cyclohexyl)-3-fluoro-4-(4-(4-oxo-4,5,6,7-tetrahydro-1H-pyrrolo[3,2-c]pyridin-2-yl)pyridin-2-yl)benzamide], the DC50 on MK2 was under 0.01 µM. Further, the IC50 in experiment [1] is 0.501 to 1 µM.

In the case of `O=C1CCC(c2cccc(N3CCN(CC[C@H]4CC[C@H](NC(=O)c5ccc(-c6cc(-c7cc8c([nH]7)CCNC8=O)ccn6)c(F)c5)CC4)CC3)c2)C(=O)N1` (stereo partly drawn) [Example 1.9, N-(trans-4-(2-(4-(3-(2,6-Dioxopiperidin-3-yl)phenyl)piperazin-1-yl)ethyl)cyclohexyl)-3-fluoro-4-(4-(4-oxo-4,5,6,7-tetrahydro-1H-pyrrolo[3,2-c]pyridin-2-yl)pyridin-2-yl)benzamide], at MK2, the DC50 lay within 0.101 to 0.5 µM. In addition, in experiment [1], the IC50 fell in the range of 0.151 to 0.5 µM.

For `O=C1CCC(c2ccc(N3CCN(CC[C@H]4CC[C@H](NC(=O)c5ccc(-c6cc(-c7cc8c([nH]7)CCNC8=O)ccn6)c(F)c5)CC4)CC3)cc2)C(=O)N1` (stereo partly drawn) [Example 1.10, N-(trans-4-(2-(4-(4-(2,6-Dioxopiperidin-3-yl)phenyl)piperazin-1-yl)ethyl)cyclohexyl)-3-fluoro-4-(4-(4-oxo-4,5,6,7-tetrahydro-1H-pyrrolo[3,2-c]pyridin-2-yl)pyridin-2-yl)benzamide], the DC50 on MK2 lay within 0.01 to 0.1 µM. Further, the IC50 in experiment [1] is 0.501 to 1 µM.

In the case of `Cn1nc(C2CCC(=O)NC2=O)c2ccc(N3CCN(CCN4CCN(c5cccc(-c6cc(-c7cc8c([nH]7)CCNC8=O)ccn6)c5)CC4)CC3)cc21` (stereo not drawn) [Example 1.11, 3-(1-Methyl-6-(4-(2-(4-(3-(4-(4-oxo-4,5,6,7-tetrahydro-1H-pyrrolo[3,2-c]pyridin-2-yl)pyridin-2-yl)phenyl)piperazin-1-yl)ethyl)piperazin-1-yl)-1H-indazol-3-yl)piperidine-2,6-dione], the DC50 on MK2 was 0.101 to 0.5 µM. For the same compound, the IC50 in experiment [1] is under 0.15 µM.

Regarding `O=C1CCC(c2ccc(N3CCN(CCN4CCN(c5cccc(-c6cc(-c7cc8c([nH]7)CCNC8=O)ccn6)c5)CC4)CC3)cc2)C(=O)N1` (stereo not drawn) [Example 1.12, 3-(4-(4-(2-(4-(3-(4-(4-Oxo-4,5,6,7-tetrahydro-1H-pyrrolo[3,2-c]pyridin-2-yl)pyridin-2-yl)phenyl)piperazin-1-yl)ethyl)piperazin-1-yl)phenyl)piperidine-2,6-dione], the DC50 at MK2 was over 0.5 µM. Moreover, the IC50 in experiment [1] was 0.151 to 0.5 µM.

Consider `Cn1nc(C2CCC(=O)NC2=O)c2cccc(N3CCN(CCN4CCN(c5ccc(-c6cc(-c7cc8c([nH]7)CCNC8=O)ccn6)c(F)c5)CC4)CC3)c21` (stereo not drawn) [Example 1.13, 3-(7-(4-(2-(4-(3-Fluoro-4-(4-(4-oxo-4,5,6,7-tetrahydro-1H-pyrrolo[3,2-c]pyridin-2-yl)pyridin-2-yl)phenyl)piperazin-1-yl)ethyl)piperazin-1-yl)-1-methyl-1H-indazol-3-yl)piperidine-2,6-dione], for which, on MK2, the DC50 was under 0.01 µM. Besides, the IC50 in experiment [1] fell in the range of 0.501 to 1 µM.
